# In patent publication US11066414B2, “Cot modulators and methods of use thereof” (Gilead Sciences, Inc., priority 2015, dated 2021):
# Like-named read-outs stand apart in the source and are kept apart here.
# How the values were obtained:
# [1] = biological target: Human Cot (Homo sapiens (Human), UniProt P41279); assay: High Throughput Cot Biochemical Assay
# [2] = tested on: TNFα; assay: Cot Monocyte TNFα Cell Based Assay
# [3] = IC50 HTRF, Cot HTRF (TR-FRET) biochemical assay
# [4] = Homo sapiens, Monocyte, read-out: EC50 TNF, LPS-stimulated human monocytes, TNFα
# [5] = IC50 HTRF, Cot HTRF (TR-FRET KinEASE) biochemical assay, 400 μM ATP
# [6] = Homo sapiens, Monocyte, read-out: EC50 TNF, LPS-stimulated human monocytes, TNFα TR-FRET
# Human Cot, sequence (P41279 30-397): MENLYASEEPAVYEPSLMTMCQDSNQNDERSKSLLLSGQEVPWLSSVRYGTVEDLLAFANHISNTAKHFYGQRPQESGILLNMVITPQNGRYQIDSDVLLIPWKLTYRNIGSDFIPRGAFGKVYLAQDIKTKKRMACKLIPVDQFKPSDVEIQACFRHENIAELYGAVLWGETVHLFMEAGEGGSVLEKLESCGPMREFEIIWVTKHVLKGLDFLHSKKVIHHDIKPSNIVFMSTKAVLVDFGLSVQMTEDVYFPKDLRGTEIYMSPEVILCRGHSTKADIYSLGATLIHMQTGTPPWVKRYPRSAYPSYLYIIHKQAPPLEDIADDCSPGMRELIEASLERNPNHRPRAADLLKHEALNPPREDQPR
SMILES,"IC50 [1, 3]","EC50 [2, 4]",further results
"Cn1ncc2cccc([C@H](Nc3cc(Cl)c4ncc(C#N)c(NCC(C)(C)C)c4c3)c3cn(C4(C(F)(F)F)CC4)nn3)c21 [Example 521, (S)-8-chloro-6-(((1-methyl-1H-indazol-7-yl)(1-(1-(trifluoromethyl)-cyclopropyl)-1H-1,2,3-triazol-4-yl)methyl)amino)-4-(neopentylamino)-quinoline-3-carbonitrile]",27 nM,256 nM,
"Cn1nccc1[C@H](Nc1cc(Cl)c2ncc(C#N)c(Nc3ccc(F)c(Cl)c3)c2c1)c1cn(C2CCN(C(C)(C)C)CC2)nn1 [Example 305, (S)-6-(((1-(1-(tert-butyl)piperidin-4-yl)-1H-1,2,3-triazol-4-yl)(1-methyl-1H-pyrazol-5-yl)methyl)amino)-8-chloro-4-((3-chloro-4-fluorophenyl)amino)quinoline-3-carbonitrile]",3 nM,84 nM,
"N#Cc1cnc2c(Cl)cc(N[C@@H](c3cscn3)c3cn(CCN)nn3)cc2c1Nc1ccc(F)c(Cl)c1 [Example 359, (S)-6-(((1-(2-arninoethyl)-1H-1,2,3-triazol-4-yl)(thiazol-4-yl)methyl)-amino)-8-chloro-4-((3-chloro-4-fluorophenyl)amino)quinoline-3-carbonitrile]",,,"IC50 ([1]; read-out: IC50 HTRF, Cot HTRF (TR-FRET) biochemical assay): 3 nM; EC50 ([2]; read-out: EC50 TNF, LPS-stimulated human monocytes, TNFα): 729 nM"
"CC(C)(C)N1CCC(n2cc([C@@H](Nc3cc(Cl)c4ncc(C#N)c(NC5CCCCCC5)c4c3)c3cccnc3)nn2)CC1 [Example 288, (S)-6-(((1-(1-(tert-butyl)piperidin-4-yl)-1H-1,2,3-triazol-4-yl)(pyridin-3-yl)methyl)amino)-8-chloro-4-(cycloheptylamino)quinoline-3-carbonitrile]",26 nM,1060 nM,
"C[C@@H](CF)n1cc([C@@H](Nc2cc(Cl)c3ncc(C#N)c(NCC(C)(C)C)c3c2)c2cccc3c(=O)n(C)ccc23)nn1 [Example 778, 8-chloro-6-(((S)-(1-((S)-1-fluoropropan-2-yl)-1H-1,2,3-triazol-4-yl)(2-methyl-1-oxo-1,2-dihydroisoquinolin-5-yl)methyl)amino)-4-(neopentylamino)quinoline-3-carbonitrile]",4 nM,30 nM,
"COc1ncccc1[C@H](Nc1cc(C#N)c2ncc(C#N)c(NCC(C)(C)C)c2c1)c1cn(C2(C(F)(F)F)CC2)nn1 [Example 885, (S)-6-(((2-methoxypyridin-3-yl)(1-(1-(trifluoromethyl)cyclopropyl)-1H-1,2,3-triazol-4-yl)methyl)amino)-4-(neopentylamino)quinoline-3,8-dicarbonitrile]",,,"IC50 [1, 5]: 10 nM; EC50 [2, 6]: 132 nM"
"[2H]c1c([C@@H](Nc2cc(Cl)c3ncc(C#N)c(NC([2H])([2H])C(C)(C)C)c3c2)c2ccc(F)nc2C)nnn1C1(C(F)F)CC1 [Example 973, (S)-8-chloro-6-(((1-(1-(difluoromethyl)cyclopropyl)-1H-1,2,3-triazol-4-yl-5-d)(6-fluoro-2-methylpyridin-3-yl)methyl)amino)-4-((2,2-dimethylpropyl-1,1-d2)amino)quinoline-3-carbonitrile]",,,"IC50 [1, 5]: 3 nM; EC50 [2, 6]: 34 nM"
"N#Cc1cnc2c(Cl)cc(N[C@@H](c3cncc(Cl)c3)c3c[nH]nn3)cc2c1Nc1cnc(F)c(F)c1 [Example 152, (S)-8-chloro-6-(((5-chloropyridin-3-yl)(1H-1,2,3-triazol-4-yl)methyl)amino)-4-((5,6-difluoropyridin-3-yl)amino)quinoline-3-carbonitrile]",10 nM,904 nM,
"COc1nccc2c([C@H](Nc3cc(Cl)c4ncc(C#N)c(NCC(C)(C)C)c4c3)c3cn(C4CC4)nn3)cccc12 [Example 912, (S)-8-chloro-6-(((1-cyclopropyl-1H-1,2,3-triazol-4-yl)(1-methoxylsoquinolin-5-yl)methyl)amino)-4-(neopentylamino)quinoline-3-carbonitrile]",,,"IC50 ([1]; read-out: IC50 HTRF, Cot HTRF (TR-FRET KinEASE) biochemical assay, 400 μM ATP): 6 nM; EC50 ([2]; read-out: EC50 TNF, LPS-stimulated human monocytes, TNFα TR-FRET): 78 nM"
"N#Cc1cnc2c(Cl)cc(N[C@@H](c3cscn3)c3cn(Cc4ccccn4)nn3)cc2c1Nc1ccc(F)c(Cl)c1 [Example 316, (S)-8-chloro-4-((3-chloro-4-fluorophenyl)amino)-6-(((1-(pyridin-2-ylmethyl)-1H-1,2,3-triazol-4-yl)(thiazol-4-yl)methyl)amino)quinoline-3-carbonitrile]",6 nM,298 nM,
"Cc1nc(F)ccc1[C@H](Nc1cc(C#N)c2ncc(C#N)c(NCC(C)(C)C)c2c1)c1nnn(C23CC(C2)C3)c1F [Example 954, (S)-6-(((1-(bicyclo[1.1.1]pentan-1-yl)-5-fluoro-1H-1,2,3-triazol-4-yl)(6-fluoro-2-methylpyridin-3-yl)methyl)amino)-4-(neopentylamino)quinoline-3,8-dicarbonitrile]",,,"IC50 [1, 5]: 7 nM; EC50 [2, 6]: 16 nM"
"Cc1ccnc2cccc([C@H](Nc3cc(Cl)c4ncc(C#N)c(NCC(C)(C)C)c4c3)c3cn(C4(C(F)(F)F)CC4)nn3)c12 [Example 660, (S)-8-chloro-6-(((4-methylquinolin-5-yl)(1-(1-(trifluoromethyl)cyclopropyl)-1H-1,2,3-triazol-4-yl)methyl)amino)-4-(neopentylamino)quinoline-3-carbonitrile]",43 nM,839 nM,
"Cn1ncc2cccc([C@H](Nc3cc(Cl)c4ncc(C#N)c(NCC(C)(C)C)c4c3)c3cn(C4(C(F)F)CC4)nn3)c21 [Example 603, (S)-8-chloro-6-(((1-(1-(difluoromethyl)cyclo-propyl)-1H-1,2,3-triazol-4-yl)(1-methyl-1H-indazol-7-yl)methyl)amino)-4-(neopentyl-amino)quinoline-3-carbonitrile]",7 nM,107 nM,

# The next lines start with results.
"IC50 [1, 3]","EC50 [2, 4]",SMILES,further results
27 nM,684 nM,"CC(C)(C)CNc1c(C#N)cnc2c(Cl)cc(N[C@@H](c3ccc4cccnc4c3)c3cn(C4(C(F)(F)F)CC4)nn3)cc12 [Example 698, (S)-8-chloro-4-(neopentylamino)-6-((quinolin-7-yl(1-(1-(trifluoromethyl)cyclopropyl)-1H-1,2,3-triazol-4-yl)methyl)amino)quinoline-3-carbonitrile]",
2 nM,75 nM,"CC(C)(C)CNc1c(C#N)cnc2c(Cl)cc(N[C@H](c3cn(C4(C(F)F)CC4)nn3)c3cccc4ccncc34)cc12 [Example 537, (S)-8-chloro-6-(((1-(1-(difluoromethyl)-cyclopropyl)-1H-1,2,3-triazol-4-yl)(isoquinolin-8-yl)methyl)amino)-4-(neopentylamino)quinoline-3-carbonitrile]",
4 nM,46 nM,"Cc1nc(F)ccc1[C@H](Nc1cc(Cl)c2ncc(C#N)c(NCC(C)(C)C)c2c1)c1cn(CC2(C)CC2)nn1 [Example 764, (S)-8-chloro-6-(((6-fluoro-2-methylpyridin-3-yl)(1-((1-methylcyclopropyl)-methyl)-1H-1,2,3-triazol-4-yl)methyl)amino)-4-(neopentylamino)quinoline-3-carbonitrile]",
72 nM,2050 nM,"C[C@@H](n1cc([C@@H](Nc2cc(Cl)c3ncc(C#N)c(Nc4cnc(F)c(F)c4)c3c2)c2cccnc2)nn1)C(F)(F)F [Example 205, 8-chloro-4-((5,6-difluoropyridin-3-yl)amino)-6-(((S)-pyridin-3-yl(1-((R)-1,1,1-trifluoropropan-2-yl)-1H-1,2,3-triazol-4-yl)methyl)amino)quinoline-3-carbonitrile]",
